This passage reports resistance to daunorubicin and HIF1 protein levels results from patent publication US11591658B2, “Methods for sub-typing and treating cancer” (HI-STEM gGmbH, priority 2017, dated 2023).

Assay [1] relates to AML cells with long-term BCAT1-overexpression. Put plainly: Sensitivity of long-term BCAT1-overexpressing AML cells to daunorubicin. In kind it is cell-based. Conditions: FIG. 5i. The source says:
AML patient survival is usually associated with sensitivity to standard chemotherapy^23,24. […] Along these lines, BCAT1 expression was consistently higher (on average 6.6-fold) in the relapse versus the paired diagnostic sample (FIG. 5j).

The next assay concerns the target T1, EGLN1 (Homo sapiens, UniProt Q9GZT9).
T1 construct: endogenous in cells; host or cells: HL-60 AML cells transduced with shBCAT1 (BCAT1 knockdown)
Nature of the assay: HIF1 protein levels in BCAT1 knockdown cells treated with cobalt chloride. Conditions: BCAT1 knockdown cells (HL-60), cobalt chloride given to inhibit EGLN1 activity, FIG. 4g. The assay is classed as cell-based. The source says:
To gain additional mechanistic insight into cellular pathways affected by BCAT1, we utilized the HL-60 AML cell line. […] Western blot analysis confirmed HIF1 as downstream target of BCAT1 (FIG. 4e), and decreased HIF1 levels were due to enhanced protein degradation since the relative amount of hydroxylated Proline564 was increased after BCAT1 knockdown (FIG. 4f), as intracellular αKG is a co-factor of EGLN1 activity^14. […] Finally, lentiviral overexpression of HIF1 as well as shRNA-mediated knockdown of EGLN1 was sufficient to rescue the proliferation and survival defect after BCAT1-KD (FIG. 4h, i). Together, these analyses place BCAT1 upstream of HIF1 mediating its effect via the αKG-dependent activation of EGLN1. […] Knockdown of HIF1 is sufficient to abrogate LSC function^16.

T1 sequence (Q9GZT9 whole entry): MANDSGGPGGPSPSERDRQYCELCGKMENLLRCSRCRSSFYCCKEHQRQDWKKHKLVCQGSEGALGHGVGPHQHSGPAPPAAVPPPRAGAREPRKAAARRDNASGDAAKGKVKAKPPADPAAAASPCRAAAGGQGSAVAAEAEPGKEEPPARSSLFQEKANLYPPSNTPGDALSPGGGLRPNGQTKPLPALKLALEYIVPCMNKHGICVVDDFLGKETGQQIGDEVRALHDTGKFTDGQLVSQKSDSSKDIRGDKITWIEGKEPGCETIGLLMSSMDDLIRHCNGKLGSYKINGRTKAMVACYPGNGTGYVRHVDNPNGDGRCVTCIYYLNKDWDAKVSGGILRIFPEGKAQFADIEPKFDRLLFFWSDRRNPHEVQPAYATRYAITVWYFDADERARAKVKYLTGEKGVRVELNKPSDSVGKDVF

As for `COc1cccc2c1C(=O)c1c(O)c3c(c(O)c1C2=O)C[C@@](O)(C(C)=O)C[C@@H]3O[C@H]1C[C@H](N)[C@H](O)[C@H](C)O1` [daunorubicin], the resistance to daunorubicin result in assay [1] is “increased resistance”.
Take `[Cl][Co][Cl]` [cobalt chloride]: the HIF1 protein levels entry on EGLN1 is listed as “attenuated decrease of HIF1 protein levels”.
